From patent US8927498B2, “Compositions and methods useful in enhancement of memory” (The Translational Genomics Research Institute, priority 2010, dated 2015)
Entries after “also recorded” stand apart in the source; their conditions may differ.

Tests used:
[1] = tested on: seventeen-month-old Fischer-344 male rats (aged rat model of cognitive decline); test: water-escape radial arm maze, spatial working memory; assay type: in vivo; conditions: 17-month-old Fischer-344 male rats, 1 mg/kg/day, vs vehicle (saline)
Procedure: In one embodiment of the present disclosed invention, the transduction complex comprises a fusion peptide including a TAT protein transduction domain and residues surrounding two known serine phosphorylation targets (Ser159 and Ser163) within MARCKS (SEQ ID NO: 3). The compound was administered to seventeen-month-old rats and behavioral spatial working memory of the rats was assessed by behavior testing. […] Such assays include, without limitation, the Morris water maze and the radial arm water maze, plus maze. For example, when employing the Morris water maze, a rat is trained to swim to a submerged platform. The rat can then be treated with an agent at a particular dose for a particular duration. Following treatment, the mean escape latency (i.e., time to find platform) is measured and compared to the mean escape latency of a control. […] Following treatment, the ability of the rat to remember a newly-learned path is measured and compared to that of a control. […] In the water Plus Maze test, the variables measured include the percentage of time spent in the open and closed areas of the maze, the latency to leave the central platform, the total number of crossings between the various open and closed areas of the maze, and the number of crossings into the open areas of the maze divided by the total number of crossings. […]

[2] = tested on: hippocampal expression of candidate genes; test: hippocampal expression of candidate genes, Illumina RatRef-12 expression BeadChip; assay type: in vivo, rat
Text: (§1) Following sacrifice, the left hippocampus was utilized for genome-wide expression profiling. […] These included Adcyap1 with fold change (FC) of 1.5, and p=0.029, Tiam1 with FC of −1.5 and p=0.028, and Filip1 with FC of −1.75 and p=0.032 (Table 1). The RT-PCR validation of the fold change of FILIP1 and Tiam1 is shown in Table 2 and Table 3, respectively.

Tiam1 = test: RT-PCR validation of Tiam1 normalized to GADPH; assay type: in vivo, rat; conditions: n = 9; vehicle 1.02
Text: as §1

FILIP1 = test: RT-PCR validation of FILIP1 (normalized to GAPDH); assay type: in vivo, rat; conditions: n = 9; vehicle 1.28
Text: as §1

[3] = hippocampus, treated vs. vehicle rats, Mann-Whitney
[4] = hippocampus, treated vs. vehicle rats, T-Test
[5] = left hippocampus, genome-wide expression profiling

## SEQ ID NO: 1: fusion peptide including a TAT protein transduction domain and residues surrounding two known serine phosphorylation targets (Ser159 and Ser163) within MARCKS (YGRKKRRQRRRCKRFSFKKSFKLSGFSFKK; TAT MARCKS fusion)
[1]; n=9
  working memory performance in water-escape radial arm maze: better able to process multiple items of information; also recorded: enhanced working memory performance
[1]; n=9, listed as MARCKS peptide decoy
  working memory performance in water-escape radial arm maze: better performance in the radial arm water maze
[2]; [3]
  Fold Change Filip1: −1.747
  Fold Change Gna1: −1.534
  Fold Change Ptpro: −1.708
  Fold Change Tiam1: −1.510
  Fold Change Tp53i11_predicted: −1.581
[2]; [4]
  Fold Change Adcyap1: 1.554
  Fold Change Filip1: −1.747
  Fold Change LOC501145: 1.566
  Fold Change Perp_predicted: −1.647
  Fold Change Tiam1: −1.499
  Fold Change Tp53i11_predicted: −1.554
[2]; [5]
  fold change (FC) Adcyap1: 1.5
  fold change (FC) Filip1: −1.75
  fold change (FC) Tiam1: −1.5
Tiam1
  RT-PCR Tiam1 Average normalized to GADPH: 0.89
FILIP1
  RT-PCR FILIP1 Average (normalized to GAPDH): 1.20
